Experimental data from patent publication US20220133833A1, “USE OF GRAPE AND/OR SOY SUPPLEMENTS AGAINST COVID-19 AND 92 OTHER VIRUSES AND BACTERIA INCLUDING OTHER UNKNOWN VIRUSES AND BACTERIA” (priority 2020, published 2022).
Read-outs that look alike come from different tables or passages of the source.

System: H1N1 virus
[1] = one-week preventive treatment, 0.2 ml/0.4 ml/mouse iv/ip QD, till the end of the study

## APOA-1 [RAAS-2]
mice, H1N1
  prevention of the Bird Flu Epidemiology in Mice: 100%
[1]
  protection from body weight loss: totally protected
  protection from death: totally protected
Preventive treatment
  protection of body weight loss compared with oseltamivir treatment: even better than that by oseltamivir treatment
Therapeutic group (G2), some of the mice, day 5 post H1N1 challenge and afterward
  adverse finding / tolerance: haematuria
Therapeutic treatment, 0.2 ml/0.4 ml iv/ip QD, all 5 mice, days 2 to 5 post H1N1 infection
  protection from body weight loss: partial
Therapeutic treatment, 0.2 ml/0.4 ml iv/ip QD, group of 5 mice
  mice protected from death: one mouse out of 5 mice
